Data from ChEMBL document CHEMBL3045592, “Studies of O,O-dimethyl α-(2,4-dichlorophenoxyacetoxy)ethylphosphonate (HW02) as a new herbicide. 1. Synthesis and herbicidal activity of HW02 and analogues as novel inhibitors of pyruvate dehydrogenase complex” (J Agric Food Chem, 2011).

How the values were obtained:
Assay type in all cases: functional
[1] = tested on: Digitaria sanguinalis; assay: Post-emergence herbicidal activity against Digitaria sanguinalis (hairy crabgrass) assessed as growth inhibition at 75 ai g/ha after 20 days by green house test
[2] = tested on: Digitaria sanguinalis; assay: Pre-emergence herbicidal activity against Digitaria sanguinalis (hairy crabgrass) assessed as growth inhibition at 450 ai g/ha after 20 days by green house test
[3] = tested on: Digitaria sanguinalis; assay: Pre-emergence herbicidal activity against Digitaria sanguinalis (hairy crabgrass) assessed as growth inhibition at 150 ai g/ha after 20 days by green house test
[4] = tested on: Digitaria sanguinalis; assay: Pre-emergence herbicidal activity against Digitaria sanguinalis (hairy crabgrass) assessed as growth inhibition at 75 ai g/ha after 20 days by green house test
[5] = tested on: Chenopodium album; assay: Post-emergence herbicidal activity against Chenopodium album assessed as growth inhibition at 450 ai g/ha after 20 days by green house test
[6] = tested on: Chenopodium album; assay: Post-emergence herbicidal activity against Chenopodium album assessed as growth inhibition at 150 ai g/ha after 20 days by green house test
[7] = tested on: Chenopodium album; assay: Post-emergence herbicidal activity against Chenopodium album assessed as growth inhibition at 75 ai g/ha after 20 days by green house test
[8] = tested on: Chenopodium album; assay: Pre-emergence herbicidal activity against Chenopodium album assessed as growth inhibition at 450 ai g/ha after 20 days by green house test
[9] = tested on: Chenopodium album; assay: Pre-emergence herbicidal activity against Chenopodium album assessed as growth inhibition at 150 ai g/ha after 20 days by green house test
[10] = tested on: Chenopodium album; assay: Pre-emergence herbicidal activity against Chenopodium album assessed as growth inhibition at 75 ai g/ha after 20 days by green house test
[11] = tested on: Amaranthus spinosus; assay: Post-emergence herbicidal activity against Amaranthus spinosus assessed as growth inhibition at 450 ai g/ha after 20 days by green house test
[12] = tested on: Amaranthus spinosus; assay: Post-emergence herbicidal activity against Amaranthus spinosus assessed as growth inhibition at 150 ai g/ha after 20 days by green house test
[13] = tested on: Amaranthus spinosus; assay: Post-emergence herbicidal activity against Amaranthus spinosus assessed as growth inhibition at 75 ai g/ha after 20 days by green house test
[14] = tested on: Abutilon theophrasti; assay: Post-emergence herbicidal activity against Abutilon theophrasti (velvetleaf) assessed as growth inhibition at 75 ai g/ha after 20 days by green house test
[15] = tested on: Abutilon theophrasti; assay: Pre-emergence herbicidal activity against Abutilon theophrasti (velvetleaf) assessed as growth inhibition at 450 ai g/ha after 20 days by green house test
[16] = tested on: Abutilon theophrasti; assay: Pre-emergence herbicidal activity against Abutilon theophrasti (velvetleaf) assessed as growth inhibition at 150 ai g/ha after 20 days by green house test
[17] = tested on: Abutilon theophrasti; assay: Pre-emergence herbicidal activity against Abutilon theophrasti (velvetleaf) assessed as growth inhibition at 75 ai g/ha after 20 days by green house test
[18] = tested on: Medicago sativa; assay: Post-emergence herbicidal activity against Medicago sativa (alfalfa) assessed as growth inhibition at 1500 ai g/ha after 20 days by green house test
[19] = tested on: Amaranthus retroflexus; assay: Post-emergence herbicidal activity against Amaranthus retroflexus assessed as growth inhibition at 1500 ai g/ha after 20 days by green house test
[20] = tested on: Brassica rapa subsp. oleifera; assay: Post-emergence herbicidal activity against Brassica rapa subsp. oleifera Si Yue Man assessed as growth inhibition at 1500 ai g/ha after 20 days by green house test
[21] = tested on: Digitaria sanguinalis; assay: Post-emergence herbicidal activity against Digitaria sanguinalis (hairy crabgrass) assessed as growth inhibition at 1500 ai g/ha after 20 days by green house test
[22] = tested on: Echinochloa crus-galli; assay: Post-emergence herbicidal activity against Echinochloa crus-galli (barnyard grass) assessed as growth inhibition at 1500 ai g/ha after 20 days by green house test
[23] = tested on: Medicago sativa; assay: Pre-emergence herbicidal activity against Medicago sativa (alfalfa) assessed as growth inhibition at 1500 ai g/ha after 20 days by green house test
[24] = tested on: Amaranthus retroflexus; assay: Pre-emergence herbicidal activity against Amaranthus retroflexus assessed as growth inhibition at 1500 ai g/ha after 20 days by green house test
[25] = tested on: Brassica rapa subsp. oleifera; assay: Pre-emergence herbicidal activity against Brassica rapa subsp. oleifera Si Yue Man assessed as growth inhibition at 1500 ai g/ha after 20 days by green house test
[26] = tested on: Digitaria sanguinalis; assay: Pre-emergence herbicidal activity against Digitaria sanguinalis (hairy crabgrass) assessed as growth inhibition at 1500 ai g/ha after 20 days by green house test
[27] = tested on: Echinochloa crus-galli; assay: Pre-emergence herbicidal activity against Echinochloa crus-galli (barnyard grass) assessed as growth inhibition at 1500 ai g/ha after 20 days by green house test
[28] = tested on: Amaranthus spinosus; assay: Pre-emergence herbicidal activity against Amaranthus spinosus assessed as growth inhibition at 450 ai g/ha after 20 days by green house test
[29] = tested on: Amaranthus spinosus; assay: Pre-emergence herbicidal activity against Amaranthus spinosus assessed as growth inhibition at 150 ai g/ha after 20 days by green house test
[30] = tested on: Amaranthus spinosus; assay: Pre-emergence herbicidal activity against Amaranthus spinosus assessed as growth inhibition at 75 ai g/ha after 20 days by green house test
[31] = tested on: Abutilon theophrasti; assay: Post-emergence herbicidal activity against Abutilon theophrasti (velvetleaf) assessed as growth inhibition at 450 ai g/ha after 20 days by green house test
[32] = tested on: Abutilon theophrasti; assay: Post-emergence herbicidal activity against Abutilon theophrasti (velvetleaf) assessed as growth inhibition at 150 ai g/ha after 20 days by green house test
[33] = tested on: Setaria viridis; assay: Post-emergence herbicidal activity against Setaria viridis (green foxtail) assessed as growth inhibition at 450 ai g/ha after 20 days by green house test
[34] = tested on: Setaria viridis; assay: Post-emergence herbicidal activity against Setaria viridis (green foxtail) assessed as growth inhibition at 150 ai g/ha after 20 days by green house test
[35] = tested on: Setaria viridis; assay: Post-emergence herbicidal activity against Setaria viridis (green foxtail) assessed as growth inhibition at 75 ai g/ha after 20 days by green house test
[36] = tested on: Setaria viridis; assay: Pre-emergence herbicidal activity against Setaria viridis (green foxtail) assessed as growth inhibition at 450 ai g/ha after 20 days by green house test
[37] = tested on: Setaria viridis; assay: Pre-emergence herbicidal activity against Setaria viridis (green foxtail) assessed as growth inhibition at 150 ai g/ha after 20 days by green house test
[38] = tested on: Setaria viridis; assay: Pre-emergence herbicidal activity against Setaria viridis (green foxtail) assessed as growth inhibition at 75 ai g/ha after 20 days by green house test
[39] = tested on: Digitaria sanguinalis; assay: Post-emergence herbicidal activity against Digitaria sanguinalis (hairy crabgrass) assessed as growth inhibition at 450 ai g/ha after 20 days by green house test
[40] = tested on: Digitaria sanguinalis; assay: Post-emergence herbicidal activity against Digitaria sanguinalis (hairy crabgrass) assessed as growth inhibition at 150 ai g/ha after 20 days by green house test

Row | Compound | growth inhibition (GI) [2] | growth inhibition (GI) [3] | growth inhibition (GI) [5] | growth inhibition (GI) [6] | growth inhibition (GI) [8] | growth inhibition (GI) [9] | growth inhibition (GI) [11] | growth inhibition (GI) [12] | growth inhibition (GI) [15] | growth inhibition (GI) [16] | growth inhibition (GI) [18] | growth inhibition (GI) [19] | growth inhibition (GI) [20] | growth inhibition (GI) [21] | growth inhibition (GI) [22] | growth inhibition (GI) [23] | growth inhibition (GI) [24] | growth inhibition (GI) [25] | growth inhibition (GI) [26] | growth inhibition (GI) [27] | other results
1 | COP(=O)(OC)C(OC(=O)COc1ccc(Cl)cc1C)c1cccc([N+](=O)[O-])c1 (stereo not given) | 0% | 0% | 100% | 82.5% | 0% | 0% | 100% | 100% | 0% | 0% | 50% | 90% | 75% | <=50% | 75% | 75% | 75% | 50% | 90% | 90% | growth inhibition (GI) [1]: 0%; growth inhibition (GI) [4]: 0%; growth inhibition (GI) [7]: 52.5%; growth inhibition (GI) [10]: 0%; growth inhibition (GI) [13]: 50%; growth inhibition (GI) [14]: 50%; growth inhibition (GI) [17]: 0%; growth inhibition (GI) [28]: 0%; growth inhibition (GI) [29]: 0%; growth inhibition (GI) [30]: 0%; growth inhibition (GI) [31]: 100%; growth inhibition (GI) [32]: 90%; growth inhibition (GI) [33]: 0%; growth inhibition (GI) [34]: 0%; growth inhibition (GI) [35]: 0%; growth inhibition (GI) [36]: 0%; growth inhibition (GI) [37]: 0%; growth inhibition (GI) [38]: 0%; growth inhibition (GI) [39]: 10%; growth inhibition (GI) [40]: 0%
2 | COP(=O)(OC)C(C)OC(=O)COc1ccc(Cl)cc1C (stereo not given) | 16% | 0% | 80% | 60% | 0% | 0% | 100% | 10% | 0% | 0% | 50% | 90% | 90% | 50% | 50% | 90% | 90% | 90% | 90% | 90% | growth inhibition (GI) [28]: 30%; growth inhibition (GI) [29]: 0%; growth inhibition (GI) [31]: 96%; growth inhibition (GI) [32]: 82%; growth inhibition (GI) [33]: 0%; growth inhibition (GI) [34]: 0%; growth inhibition (GI) [36]: 0%; growth inhibition (GI) [37]: 0%; growth inhibition (GI) [39]: 10%; growth inhibition (GI) [40]: 0%
